# Assay results reported in ChEMBL document CHEMBL4257449, “New N-(2-phenyl-4-oxo-1,3-thiazolidin-3-yl)-1,2-benzothiazole-3-carboxamides and acetamides as antimicrobial agents” (2017).
# What was measured:
# Pseudomonas aeruginosa [1] = test: Antibacterial activity against Pseudomonas aeruginosa ATCC 27853 after 24 hrs by microdilution method; type: functional; conditions: ATCC 27853, 24 h
# Bacillus cereus [2] = test: Bactericidal activity against Bacillus cereus incubated for 24 hrs followed by serial sub-cultivation and measured after 24 hrs by microdilution method; type: functional
# Escherichia coli [3] = test: Bactericidal activity against Escherichia coli ATCC 35210 incubated for 24 hrs followed by serial sub-cultivation and measured after 24 hrs by microdilution method; type: functional
# Penicillium ochrochloron [4] = test: Antifungal activity against Penicillium ochrochloron ATCC 9112 after 72 hrs by serial dilution method; type: functional; conditions: ATCC 9112, 72 h
# Aspergillus niger [5] = test: Fungicidal activity against Aspergillus niger ATCC 6275 incubated for 72 hrs followed by serial sub-cultivation for 72 hrs and measured after 72 hrs by serial dilution method; type: functional
# Talaromyces funiculosus [6] = test: Fungicidal activity against Penicillium funiculosum ATCC 36839 incubated for 72 hrs followed by serial sub-cultivation for 72 hrs and measured after 72 hrs by serial dilution method; type: functional
# Trichoderma viride [7] = test: Antifungal activity against Trichoderma viride IAM 5061 after 72 hrs by serial dilution method; type: functional; conditions: IAM 5061, 72 h
# Salmonella typhimurium [8] = test: Antibacterial activity against Salmonella typhimurium ATCC 13311 after 24 hrs by microdilution method; type: functional, Salmonella enterica subsp. enterica serovar Typhimurium; conditions: Salmonella enterica, ATCC 13311, 24 h
# Listeria monocytogenes [9] = test: Antibacterial activity against Listeria monocytogenes NCTC 7973 after 24 hrs by microdilution method; type: functional; conditions: NCTC 7973, 24 h
# Talaromyces funiculosus [10] = test: Antifungal activity against Penicillium funiculosum ATCC 36839 after 72 hrs by serial dilution method; type: functional; conditions: ATCC 36839, 72 h
# Staphylococcus aureus [11] = test: Antibacterial activity against Staphylococcus aureus ATCC 6538 after 24 hrs by microdilution method; type: functional; conditions: ATCC 6538, 24 h
# Listeria monocytogenes [12] = test: Bactericidal activity against Listeria monocytogenes NCTC 7973 incubated for 24 hrs followed by serial sub-cultivation and measured after 24 hrs by microdilution method; type: functional
# Bacillus cereus [13] = test: Antibacterial activity against Bacillus cereus after 24 hrs by microdilution method; type: functional
# Staphylococcus aureus [14] = test: Bactericidal activity against Staphylococcus aureus ATCC 6538 incubated for 24 hrs followed by serial sub-cultivation and measured after 24 hrs by microdilution method; type: functional
# Aspergillus ochraceus [15] = test: Antifungal activity against Aspergillus ochraceus ATCC 12066 after 72 hrs by serial dilution method; type: functional; conditions: ATCC 12066, 72 h
# Aspergillus fumigatus [16] = test: Antifungal activity against Aspergillus fumigatus after 72 hrs by serial dilution method; type: functional
# Salmonella typhimurium [17] = test: Bactericidal activity against Salmonella typhimurium ATCC 13311 incubated for 24 hrs followed by serial sub-cultivation and measured after 24 hrs by microdilution method; type: functional, Salmonella enterica subsp. enterica serovar Typhimurium
# Candida albicans [18] = test: Fungicidal activity against Candida albicans incubated for 72 hrs followed by serial sub-cultivation for 72 hrs and measured after 72 hrs by serial dilution method; type: functional
# Aspergillus fumigatus [19] = test: Fungicidal activity against Aspergillus fumigatus incubated for 72 hrs followed by serial sub-cultivation for 72 hrs and measured after 72 hrs by serial dilution method; type: functional
# Pseudomonas aeruginosa [20] = test: Bactericidal activity against Pseudomonas aeruginosa ATCC 27853 incubated for 24 hrs followed by serial sub-cultivation and measured after 24 hrs by microdilution method; type: functional
# Aspergillus versicolor [21] = test: Fungicidal activity against Aspergillus versicolor ATCC 11730 incubated for 72 hrs followed by serial sub-cultivation for 72 hrs and measured after 72 hrs by serial dilution method; type: functional
# Trichoderma viride [22] = test: Fungicidal activity against Trichoderma viride IAM 5061 incubated for 72 hrs followed by serial sub-cultivation for 72 hrs and measured after 72 hrs by serial dilution method; type: functional
# Penicillium ochrochloron [23] = test: Fungicidal activity against Penicillium ochrochloron ATCC 9112 incubated for 72 hrs followed by serial sub-cultivation for 72 hrs and measured after 72 hrs by serial dilution method; type: functional
# Aspergillus niger [24] = test: Antifungal activity against Aspergillus niger ATCC 6275 after 72 hrs by serial dilution method; type: functional; conditions: ATCC 6275, 72 h
# Escherichia coli [25] = test: Antibacterial activity against Escherichia coli ATCC 35210 after 24 hrs by microdilution method; type: functional; conditions: ATCC 35210, 24 h
# Micrococcus flavus [26] = test: Bactericidal activity against Micrococcus flavus ATCC 10240 incubated for 24 hrs followed by serial sub-cultivation and measured after 24 hrs by microdilution method; type: functional
# Micrococcus flavus [27] = test: Antibacterial activity against Micrococcus flavus ATCC 10240 after 24 hrs by microdilution method; type: functional; conditions: ATCC 10240, 24 h
# Enterobacter cloacae [28] = test: Bactericidal activity against Enterobacter cloacae incubated for 24 hrs followed by serial sub-cultivation and measured after 24 hrs by microdilution method; type: functional
# Aspergillus versicolor [29] = test: Antifungal activity against Aspergillus versicolor ATCC 11730 after 72 hrs by serial dilution method; type: functional; conditions: ATCC 11730, 72 h
# Candida albicans [30] = test: Antifungal activity against Candida albicans after 72 hrs by serial dilution method; type: functional
# Enterobacter cloacae [31] = test: Antibacterial activity against Enterobacter cloacae after 24 hrs by microdilution method; type: functional
# Aspergillus ochraceus [32] = test: Fungicidal activity against Aspergillus ochraceus ATCC 12066 incubated for 72 hrs followed by serial sub-cultivation for 72 hrs and measured after 72 hrs by serial dilution method; type: functional
smiles,measurement,setting,value
O=C(NN1C(=O)CSC1c1ccccc1)c1nsc2ccccc12 (stereo not drawn),MIC,Pseudomonas aeruginosa [1],225 µM
same,MBC99.5,Bacillus cereus [2],42.2 ×10⁻² umol/ml
same,MBC99.5,Escherichia coli [3],22.5 ×10⁻² umol/ml
same,MIC,Penicillium ochrochloron [4],112 µM
same,MFC99.5,Aspergillus niger [5],22.5 ×10⁻² umol/ml
same,MFC99.5,Talaromyces funiculosus [6],42.2 ×10⁻² umol/ml
same,MIC,Trichoderma viride [7],56 µM
same,MIC,Salmonella typhimurium [8],225 µM
same,MIC,Listeria monocytogenes [9],225 µM
same,MIC,Talaromyces funiculosus [10],225 µM
same,MIC,Staphylococcus aureus [11],225 µM
same,MBC99.5,Listeria monocytogenes [12],42.2 ×10⁻² umol/ml
same,MIC,Bacillus cereus [13],225 µM
same,MBC99.5,Staphylococcus aureus [14],42.2 ×10⁻² umol/ml
same,MIC,Aspergillus ochraceus [15],28 µM
same,MIC,Aspergillus fumigatus [16],112 µM
same,MBC99.5,Salmonella typhimurium [17],42.2 ×10⁻² umol/ml
same,MFC99.5,Candida albicans [18],42.2 ×10⁻² umol/ml
same,MFC99.5,Aspergillus fumigatus [19],22.5 ×10⁻² umol/ml
same,MBC99.5,Pseudomonas aeruginosa [20],42.2 ×10⁻² umol/ml
same,MFC99.5,Aspergillus versicolor [21],42.2 ×10⁻² umol/ml
same,MFC99.5,Trichoderma viride [22],11.2 ×10⁻² umol/ml
same,MFC99.5,Penicillium ochrochloron [23],22.5 ×10⁻² umol/ml
same,MIC,Aspergillus niger [24],112 µM
same,MIC,Escherichia coli [25],112 µM
same,MBC99.5,Micrococcus flavus [26],42.2 ×10⁻² umol/ml
same,MIC,Micrococcus flavus [27],225 µM
same,MBC99.5,Enterobacter cloacae [28],22.5 ×10⁻² umol/ml
same,MIC,Aspergillus versicolor [29],225 µM
same,MIC,Candida albicans [30],253 µM
same,MIC,Enterobacter cloacae [31],112 µM
same,MFC99.5,Aspergillus ochraceus [32],5.6 ×10⁻² umol/ml
O=C(NN1C(=O)CSC1c1ccccc1F)c1nsc2ccccc12 (stereo not drawn),MIC,Pseudomonas aeruginosa [1],214 µM
same,MBC99.5,Bacillus cereus [2],40.2 ×10⁻² umol/ml
same,MBC99.5,Escherichia coli [3],40.2 ×10⁻² umol/ml
same,MIC,Penicillium ochrochloron [4],54 µM
same,MFC99.5,Aspergillus niger [5],21.4 ×10⁻² umol/ml
same,MFC99.5,Talaromyces funiculosus [6],21.4 ×10⁻² umol/ml
same,MIC,Trichoderma viride [7],27 µM
same,MIC,Salmonella typhimurium [8],214 µM
same,MIC,Listeria monocytogenes [9],214 µM
same,MIC,Talaromyces funiculosus [10],107 µM
same,MIC,Staphylococcus aureus [11],214 µM
same,MBC99.5,Listeria monocytogenes [12],40.2 ×10⁻² umol/ml
same,MIC,Bacillus cereus [13],214 µM
same,MBC99.5,Staphylococcus aureus [14],40.2 ×10⁻² umol/ml
same,MIC,Aspergillus ochraceus [15],80 µM
same,MIC,Aspergillus fumigatus [16],107 µM
same,MBC99.5,Salmonella typhimurium [17],40.2 ×10⁻² umol/ml
same,MFC99.5,Candida albicans [18],21.4 ×10⁻² umol/ml
same,MFC99.5,Aspergillus fumigatus [19],21.4 ×10⁻² umol/ml
same,MBC99.5,Pseudomonas aeruginosa [20],40.2 ×10⁻² umol/ml
same,MFC99.5,Aspergillus versicolor [21],40.2 ×10⁻² umol/ml
same,MFC99.5,Trichoderma viride [22],5.4 ×10⁻² umol/ml
same,MFC99.5,Penicillium ochrochloron [23],10.7 ×10⁻² umol/ml
same,MIC,Aspergillus niger [24],107 µM
same,MIC,Escherichia coli [25],214 µM
same,MBC99.5,Micrococcus flavus [26],40.2 ×10⁻² umol/ml
same,MIC,Micrococcus flavus [27],295 µM
same,MBC99.5,Enterobacter cloacae [28],40.2 ×10⁻² umol/ml
same,MIC,Aspergillus versicolor [29],214 µM
same,MIC,Candida albicans [30],107 µM
same,MIC,Enterobacter cloacae [31],214 µM
same,MFC99.5,Aspergillus ochraceus [32],21.4 ×10⁻² umol/ml
O=C(Cc1nsc2ccccc12)N/N=C/c1c(F)cccc1Cl,MIC,Pseudomonas aeruginosa [1],362 µM
same,MBC99.5,Bacillus cereus [2],48.2 ×10⁻² umol/ml
same,MBC99.5,Escherichia coli [3],48.2 ×10⁻² umol/ml
same,MIC,Penicillium ochrochloron [4],116 µM
same,MFC99.5,Aspergillus niger [5],23.2 ×10⁻² umol/ml
same,MFC99.5,Talaromyces funiculosus [6],23.2 ×10⁻² umol/ml
same,MIC,Trichoderma viride [7],116 µM
same,MIC,Salmonella typhimurium [8],241 µM
same,MIC,Listeria monocytogenes [9],482 µM
same,MIC,Talaromyces funiculosus [10],116 µM
same,MIC,Staphylococcus aureus [11],241 µM
same,MBC99.5,Listeria monocytogenes [12],96.4 ×10⁻² umol/ml
same,MIC,Bacillus cereus [13],241 µM
same,MBC99.5,Staphylococcus aureus [14],48.2 ×10⁻² umol/ml
same,MIC,Aspergillus ochraceus [15],116 µM
same,MIC,Aspergillus fumigatus [16],464 µM
same,MBC99.5,Salmonella typhimurium [17],48.2 ×10⁻² umol/ml
same,MFC99.5,Candida albicans [18],58 ×10⁻² umol/ml
same,MFC99.5,Aspergillus fumigatus [19],92.8 ×10⁻² umol/ml
same,MBC99.5,Pseudomonas aeruginosa [20],48.2 ×10⁻² umol/ml
same,MFC99.5,Aspergillus versicolor [21],23.2 ×10⁻² umol/ml
same,MFC99.5,Trichoderma viride [22],23.2 ×10⁻² umol/ml
same,MFC99.5,Penicillium ochrochloron [23],23.2 ×10⁻² umol/ml
same,MIC,Aspergillus niger [24],116 µM
same,MIC,Escherichia coli [25],362 µM
same,MBC99.5,Micrococcus flavus [26],48.2 ×10⁻² umol/ml
same,MIC,Micrococcus flavus [27],362 µM
same,MBC99.5,Enterobacter cloacae [28],48.2 ×10⁻² umol/ml
same,MIC,Aspergillus versicolor [29],116 µM
same,MIC,Candida albicans [30],464 µM
same,MIC,Enterobacter cloacae [31],362 µM
same,MFC99.5,Aspergillus ochraceus [32],23.2 ×10⁻² umol/ml
O=C(NN1C(=O)CSC1c1ccc(F)cc1)c1nsc2ccccc12 (stereo not drawn),MIC,Pseudomonas aeruginosa [1],107 µM
same,MBC99.5,Bacillus cereus [2],40.2 ×10⁻² umol/ml
same,MBC99.5,Escherichia coli [3],21.4 ×10⁻² umol/ml
same,MIC,Penicillium ochrochloron [4],402 µM
same,MFC99.5,Aspergillus niger [5],80.4 ×10⁻² umol/ml
same,MFC99.5,Talaromyces funiculosus [6],53.6 ×10⁻² umol/ml
same,MIC,Trichoderma viride [7],402 µM
same,MIC,Salmonella typhimurium [8],107 µM
same,MIC,Listeria monocytogenes [9],214 µM
same,MIC,Talaromyces funiculosus [10],214 µM
same,MIC,Staphylococcus aureus [11],107 µM
same,MBC99.5,Listeria monocytogenes [12],40.2 ×10⁻² umol/ml
same,MIC,Bacillus cereus [13],214 µM
same,MBC99.5,Staphylococcus aureus [14],21.4 ×10⁻² umol/ml
same,MIC,Aspergillus ochraceus [15],402 µM
same,MIC,Aspergillus fumigatus [16],107 µM
same,MBC99.5,Salmonella typhimurium [17],21.4 ×10⁻² umol/ml
same,MFC99.5,Candida albicans [18],10.7 ×10⁻² umol/ml
same,MFC99.5,Aspergillus fumigatus [19],21.4 ×10⁻² umol/ml
same,MBC99.5,Pseudomonas aeruginosa [20],21.4 ×10⁻² umol/ml
same,MFC99.5,Aspergillus versicolor [21],80.4 ×10⁻² umol/ml
same,MFC99.5,Trichoderma viride [22],80.4 ×10⁻² umol/ml
same,MFC99.5,Penicillium ochrochloron [23],80.4 ×10⁻² umol/ml
same,MIC,Aspergillus niger [24],402 µM
same,MIC,Escherichia coli [25],107 µM
same,MBC99.5,Micrococcus flavus [26],40.2 ×10⁻² umol/ml
same,MIC,Micrococcus flavus [27],214 µM
same,MBC99.5,Enterobacter cloacae [28],21.4 ×10⁻² umol/ml
same,MIC,Aspergillus versicolor [29],402 µM
same,MIC,Candida albicans [30],80 µM
same,MIC,Enterobacter cloacae [31],107 µM
same,MFC99.5,Aspergillus ochraceus [32],80.4 ×10⁻² umol/ml
